Patent US20260306460A1, “COMPOSITION FOR REMOVING AND INHIBITING SENESCENT CELLS, AND USES THEREOF” (LIFECEUTIX CO., LTD., priority 2023, published 2026)

Columns and labels:
Type in all cases: in vivo, mouse
naturally aged mice = assay: Anti-aging evaluation in naturally aged mice, Example 31, Table 55; settings: for Femur Ctsk mRNA / Kidney Agtr1a mRNA / Liver IL6 mRNA / Liver MMP3 mRNA / Liver p16 mRNA / Open Field Test Time in Center: untreated = 100%; for Heart Sur2a mRNA / Joint Col2a1 mRNA / Skin Col1a1 mRNA / Skin SDF1 mRNA: untreated = 1.0; for Muscle Mass: untreated 0.64 g; for Fat Mass: untreated 0.82 g; for Cataract incidence: untreated 83%;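 on all read-outs here: Vehicle-dosed control mice received solution alone at matching volume, values compare test-compound-treated aged mice against that control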
[1] = test system: naturally aged C57BL6J mice; assay: Cardiac aging (cardiomyocyte size, Sur2a mRNA) in naturally aged mice, Example 21-13, Table 28; settings: heart; for Cardiomyocyte cross-sectional area (μm2): untreated aged 372 (±9); for Sur2a mRNA (fold): untreated aged = 1
Description: 22-month-old female C57BL6J mice (KRIBB Laboratory Animal Resource Center) were acclimated to the experimental environment for one week, after which the aged mice were randomly assigned to experimental and control groups. Eight-week-old, non-aged mice served as controls. LX-403 was mixed in a 10% ethanol solution of PEG400 and administered orally at a concentration of 25 mg/kg daily for 21 days, or administered to the skin, joints, or eyes at a concentration of 1 μM. LX-1801 was mixed in distilled water with 4% DMSO, 30% PEG300, and 5% Tween80 and administered to the skin, joints, or eyes at a concentration of 0.4 μM daily for 21 days. LX-2001 was mixed in PBS and administered to the skin, joints, or eyes at a concentration of […] daily for 21 days. LX-2002 was mixed in distilled water with 4% DMSO, 30% PEG300, and 5% Tween80 and administered to the skin, joints, or eyes at a concentration of 2 μM daily for 21 days. […] LX-2005 was mixed in distilled water with 4% DMSO, 30% PEG300, and 5% Tween80 and administered to the skin, joints, or eyes at a concentration of 90 μM daily for 21 days. LX-2007 was mixed in distilled water with 4% DMSO, 30% PEG300, and 5% Tween80 and administered to the skin, joints, or eyes at a concentration of 90 μM daily for 21 days. […] LX-3002 was mixed in distilled water with 4% DMSO, 30% PEG300, and 5% Tween80 and administered orally at a concentration of 10 mg/kg daily for 21 days. […] LX-5411 was mixed in 5% PBS and administered orally at a concentration of 10 mg/kg daily for 21 days or administered to the skin, joints, or eyes at a concentration of 3 μM. LX-5701 was mixed in PBS and administered orally at a concentration of 360 mg/kg daily for 21 days. LX-6807 was mixed in saline and administered intraperitoneally at a concentration of 1 mg/kg daily for 21 days. LX-2101 or LX-2102 was mixed in PBS solution with 5% DMSO and administered intraperitoneally at a concentration of 20 mg/kg or 10 mg/kg, respectively, daily for 21 days. The control group received only the solution in the same volume. After the end of drug administration, the methods described in each example below were performed.
At the histological level, cardiac aging is characterized by the loss of ventricular cardiomyocytes due to a decreased ability to replace apoptotic or necrotic cardiomyocytes, leading to hypertrophy of the remaining cardiomyocytes. To assess age-related cardiac hypertrophy, frozen cardiac tissue sections were stained with hematoxylin/eosin (H/E) and the thickness of ventricular cardiomyocytes was observed under an optical microscope.
Furthermore, cardiac aging is characterized by decreased stress tolerance, which is known to be due to decreased expression of ATP-sensitive potassium (KATP) channels. RNA was extracted from heart tissue as described in Example 7-2 of WO2023-085787 A1, and qRT-PCR was performed on Sur2a, a regulatory subunit of the KATP channel, using the synthesized cDNA.

[2] = test system: obesity-induced aged C57BL6J mice; assay: Fatty liver (Oil Red O, AST, ALT) in obesity-aged mice, Example 23-5, Table 45; settings: daily for 21 days, untreated 100%; for ALT / AST: serum; for Oil Red O: staining area, liver
Description: After acclimation to the experimental environment for one week, the mice were randomly assigned to experimental and control groups. […] The control group received only the solution in the same volume. After the end of drug administration, the methods described in each example below were performed.

[3] = test system: cigarette smoke-induced COPD C57BL6J mice; assay: Cigarette smoke COPD in mice (p16, IL6 mRNA, alveoli size), Example 25, Table 49; settings: for Airspace enlargement: average size of alveoli, untreated 38.7 (±0.6); for IL6 mRNA / p16 mRNA: lung, daily for 21 days, untreated 100%
Description: Eight-week-old male C57BL6J mice (KRIBB Laboratory Animal Resource Center) were acclimated to the experimental environment for one week. After exposure to standard cigarette smoke (costa monitoring cigarette 7) for 5 hours per day, 5 days per week for 6 months, chronic obstructive pulmonary disease (COPD) was induced. Mice with induced COPD were randomly assigned to experimental and control groups. […] LX-3002 was mixed in distilled water with 4% DMSO, 30% PEG300, 5% tween80 and administered orally at a concentration of 10 mg/kg daily for 21 days. LX-5701 was mixed in PBS and administered orally at a concentration of 360 mg/kg daily for 21 days. LX-6807 was mixed in saline and administered intraperitoneally at a concentration of 1 mg/kg daily for 21 days. The control group received only the solution in the same volume. After the end of drug administration, mice were sacrificed in the same manner as in Example 7-2 of WO2023-085787 A1, RNA was extracted from lung tissue, and qRT-PCR (quantitative real-time PCR) was performed and analyzed using the synthesized cDNA. […] The amount of mRNA after aging was calculated as 100%, and the results after treatment with the test compound were compared. Furthermore, paraffin sections were stained with hematoxylin/eosin (H/E), and the size of alveoli was measured under a light microscope to assess the degree of lung function impairment.

C57BL6-ApoE−/− mice = assay: Atherosclerosis in ApoE-/- mice (p16 mRNA, vascular plaque), Example 27, Table 51; settings: high-fat diet ApoE−/− mice; for p16 mRNA: aortic arch of thoracic aorta, untreated 100%; for Plaque number: thoracic aorta, Oil Red O, untreated 21.4 (±5.7)
Description: Fifteen-week-old male C57BL6-ApoE^−/−-mice (SLC) with atherosclerosis induced by a high-fat diet in the same manner as in Example 9-1 of WO2023-085787 A1 were acclimated to the experimental environment for one week and then randomly assigned to experimental and control groups. […] The control group was administered only the solution in the same volume. After the drug administration was terminated, the mice were sacrificed, and RNA was extracted from the aortic arch of the thoracic aorta using the same method as Example 7-2 of WO2023-085787 A1, and qRT-PCR was performed using the synthesized cDNA. In addition, the remaining part of the thoracic aorta was dissected, fixed flat in 4% paraformaldehyde at room temperature for 12 hours, and the vascular plaque was stained with Oil Red O using the same method as Example 23-5. […] The mRNA amount after aging was induced was calculated as 100% and compared with the mRNA amount of p16 after treatment with the test compound.

## O=C(C(C[N+](=O)[O-])=NO)N1CCN(C(c2ccc(Cl)cc2)c2ccc(Cl)cc2)CC1 [LX-403]
Naturally aged mice
  Femur Ctsk mRNA: 22%
  Heart Sur2a mRNA: 2.9 fold
  Joint Col2a1 mRNA: 3.4 fold
  Kidney Agtr1a mRNA: 64%
  Liver IL6 mRNA: 53%
  Liver MMP3 mRNA: 45%
  Liver p16 mRNA: 34%
  Open Field Test Time in Center: 237%
  Skin Col1a1 mRNA: 2.8 Fold
  Skin SDF1 mRNA: 2.7 fold
  Muscle Mass: 0.76 g
  Fat Mass: 0.98 g
  Cataract incidence: 64%

## S=C(N/N=C1\CCCc2cccnc21)N1CCN(c2ccccn2)CC1 [LX-801]
Naturally aged mice
  Femur Ctsk mRNA: 70%
  Heart Sur2a mRNA: 2.8 fold
  Joint Col2a1 mRNA: 2.7 fold
  Kidney Agtr1a mRNA: 55%
  Liver IL6 mRNA: 64%
  Liver MMP3 mRNA: 35%
  Liver p16 mRNA: 53%
  Open Field Test Time in Center: 222%
  Skin Col1a1 mRNA: 2.1 Fold
  Skin SDF1 mRNA: 2.1 fold
  Muscle Mass: 0.77 g
  Fat Mass: 1.09 g
  Cataract incidence: 57%

## C[C@@H]1CC[C@@]23C[C@H](O)C(=O)[C@@]2(O)[C@]1(C)[C@H](OC(=O)CCl)C[C@@H](C1=CCn2c(=O)n(-c4ccccc4)c(=O)n2C1)[C@@H]3C [LX-1801, (2S,3aS,4S,5R,7R,8S,8aS,11R)-7-(1,3-Dioxo-2-phenyl-2,3,5,8-tetrahydro-1H-[1,2,4]triazolo[1,2-a]pyridazin-6-yl)-2,3a-dihydroxy-4,8,11-trimethyl-3-oxooctahydro-1H-4,8a-propanoazulen-5-yl 2-Chloroacetate]
Naturally aged mice
  Femur Ctsk mRNA: 69%
  Heart Sur2a mRNA: 2.7 fold
  Joint Col2a1 mRNA: 2.6 fold
  Kidney Agtr1a mRNA: 48%
  Liver IL6 mRNA: 53%
  Liver MMP3 mRNA: 49%
  Liver p16 mRNA: 42%
  Open Field Test Time in Center: 287%
  Skin Col1a1 mRNA: 1.9 Fold
  Skin SDF1 mRNA: 2.2 fold
  Muscle Mass: 0.78 g
  Fat Mass: 1.16 g
  Cataract incidence: 35%

## CCCC\C=C/C=C/C=C\CCCCCCCC(=O)O [LX-2707, Punicic acid]
[1]
  Cardiomyocyte cross-sectional area (μm2): 331 (±15.7) μm2
[2]
  ALT: 64 (±3.1) %
  AST: 75 (±2.1) %
  Oil Red O: 67 (±1.7) %
[3]
  Airspace enlargement: 36.4 (±1.9) μm
  IL6 mRNA: 76 (±6.7) %
  p16 mRNA: 78 (±5.5) %
C57BL6-ApoE−/− mice
  p16 mRNA: 81 (±6.0) %
  Plaque number: 19.4 (±3.6)

## COC(=O)[C@H]1Cc2c([nH]c3ccccc23)[C@H](c2ccc(S(C)(=O)=O)cc2)N1C(=O)CCl [LX-5401, methyl (1S,3R)-2-(2-chloroacetyl)-1-(4-(methylsulfonyl)phenyl)-2,3,4,9-tetrahydro-1H-pyrido[3,4-b]indole-3-carboxylate]
Naturally aged mice
  Femur Ctsk mRNA: 42%
  Heart Sur2a mRNA: 1.7 fold
  Joint Col2a1 mRNA: 1.6 fold
  Kidney Agtr1a mRNA: 73%
  Liver IL6 mRNA: 55%
  Liver MMP3 mRNA: 81%
  Liver p16 mRNA: 73%
  Open Field Test Time in Center: 179%
  Muscle Mass: 0.69 g
  Fat Mass: 0.89 g
  Cataract incidence: 77%

## C#CC(=O)N1[C@@H](CCCC)Cc2cc(OC)ccc2[C@@H]1c1ccc(NC23CC4CC(CC(C4)C2)C3)cc1 [LX-5411]
Naturally aged mice
  Femur Ctsk mRNA: 71%
  Heart Sur2a mRNA: 2.5 fold
  Joint Col2a1 mRNA: 2.0 fold
  Kidney Agtr1a mRNA: 68%
  Liver IL6 mRNA: 63%
  Liver MMP3 mRNA: 58%
  Liver p16 mRNA: 65%
  Open Field Test Time in Center: 214%
  Skin Col1a1 mRNA: 1.6 Fold
  Skin SDF1 mRNA: 1.9 fold
  Muscle Mass: 0.74 g
  Fat Mass: 1.21 g
  Cataract incidence: 52%

## O=C1C2CCN(CC2)C1CNC(=O)C(F)(F)F (stereo not shown) [LX-5701]
[1]
  Cardiomyocyte cross-sectional area (μm2): 297 (±20) μm2
  Sur2a mRNA (fold): 2.8 (±0.2) fold
[2]
  ALT: 64 (±7.9) %
  AST: 69 (±8.8) %
  Oil Red O: 55 (±17.2) %
[3]
  Airspace enlargement: 31.9 (±2.4) μm
  IL6 mRNA: 59 (±16.8) %
  p16 mRNA: 70 (±7.8) %
C57BL6-ApoE−/− mice
  p16 mRNA: 71 (±12.8) %
  Plaque number: 12.7 (±4.6)

## Cc1cccc([C@H](C)c2cnc[nH]2)c1C [LX-6807, Dexmedetomidine]
[1]
  Cardiomyocyte cross-sectional area (μm2): 281 (±47.1) μm2
  Sur2a mRNA (fold): 3.0 (±0.2) fold
[2]
  ALT: 70 (±6.4) %
  AST: 66 (±4.4) %
  Oil Red O: 53 (±3.9) %
[3]
  Airspace enlargement: 30.4 (±1.5) μm
  IL6 mRNA: 48 (±5.6) %
  p16 mRNA: 68 (±2.4) %
C57BL6-ApoE−/− mice
  p16 mRNA: 59 (±4.7) %
  Plaque number: 15.3 (±2.4)

## Tocofersolan [LX-3001]
[1]
  Cardiomyocyte cross-sectional area (μm2): 345 (±27.6) μm2
[2]
  ALT: 71 (±1.3) %
  Oil Red O: 83 (±4.0) %
[3]
  Airspace enlargement: 37.1 (±2.7) μm
  IL6 mRNA: 79 (±9.9) %
  p16 mRNA: 83 (±5.0) %
C57BL6-ApoE−/− mice
  p16 mRNA: 78 (±7.2) %
  Plaque number: 17.5 (±4.2)
